Experimental findings from patent US7217708B2, “3,7-Diazabicyclo [3.3.1] formulations as anti-arrhythmic compounds” (Astrazeneca AB, priority 2001, dated 2007) are described below.

For orientation: melting point means the temperature of the solid-liquid transition.

For `CC(C)(C)OC(=O)NCCN1CC2CN(CCCNc3ccc(C#N)cc3)CC(C1)O2` [Example 23, Compound B], the melting point turned out to be 113.5 °C.
